Assays:
[1] = Membrane permeability test (Caco-2 monolayer); format: in vitro ADME; conditions: human, Caco-2, pH 7.4
Procedure: Caco-2 cells purchased from ATCC were seeded onto 0.4 μm pore polycarbonate membranes (PC) in 96-well Corning Insert plates at 3.5×10^4 cells/cm^2, and refreshed medium every 4˜5 days until to the 21st to 28th day for confluent cell monolayer formation.
The transport buffer in the study was HBSS with 10.0 mM HEPES at pH 7.40±0.05. Each test compound was tested at 2.00 μM in the presence or absence of 1.00 μM zosuquidar bi-directionally in duplicate. Digoxin was tested at 10.0 μM in the presence or absence of 1.00 μM zosuquidar bi-directionally in duplicate, while nadolol and metoprolol were tested at 2.00 μM in the absence of zosuquidar in A to B direction in duplicate. Final DMSO concentration was adjusted to less than 1%. The plate was incubated for 2 hours in CO2 incubator at 37.0° C., with 5% CO2 at saturated humidity without shaking. And all samples after mixed with acetonitrile containing internal standard were centrifuged at 3220×g for 10 min. Concentrations of test compounds in starting solution, donor solution and receiver solution were quantified by LC-MS/MS methodologies, using peak area ratio of analyte/internal standard. And permeation of lucifer yellow through the monolayer was measured to evaluate the cellular integrity.
The apparent permeability coefficient Papp (cm/s) was calculated using the equation: […]
where dCr/dt is the cumulative concentration of compound in the receiver chamber as a function of time; Vr is the solution volume in the receiver chamber (0.0750 mL on the apical side, 0.250 mL on the basolateral side); A is the surface area for the transport, i.e., 0.143 cm2 for the area of the monolayer; C0 is the initial concentration in the donor chamber.

NCI-N87 = assay: Cytotoxicity test, luminescent cell viability; format: cell-based; conditions: Homo sapiens; NCI-N87 (Stomach cancer), 72-hour incubation; read-out: IC50 NC-N87
Excerpt: (§1) Cytotoxicity of compounds was investigated using SHP77 (SCLC ATCC No. CRL-2195), NCI-H82 (SCLC, Jennio-bio No. JNO-22126A), NCI-H524 (SCLC, Pricella NO. CL-0403), NCI-H226 (Lung cancer, Pricella NO. CL-0396), NCI-H460 (LCLC, Pricella NO. CL-0299), OVCAR3 (Ovarian cancer, ATCC No. HTB-161), OV90 (Ovarian cancer, ATCC No. CRL-11732), LS1034 (Colon carcinoma, cobioer No. CBP60013), HT55 (Colon carcinoma, cobioer No. CBP60012), MDA-MB-468 (Breast cancer, ATCC No.htb-132) and NCI-N87 (Stomach cancer, ATCC No.CRL-5822). In brief, 5,000 cells/well of cancer cells were platted in white 96-well assay plates with flat clear bottom (Cat. No. BS-MP-96W, Biosharp) (excluding edge wells, which contained medium or PBS only) in 90 μL basic culture medium and were grown at 37° C. in a humidified incubator at 5% CO2 atmosphere. After incubation overnight, each compound was added to the respective wells in an amount of 10 μl of 10× concentrate tests from 100 nM to 0.015 nM. After additional 72-hour incubation, plates were removed from incubator and equilibrated to room temperature. After approximately 30 mins, 50 μL of Cell counting-lite 2.0 Luminescent Cell Viability Assay (Cat. No. G7573, Promega) were added to each well. After shaking the plates at 450 rpm for 3 mins followed by 10-min incubation without shaking, luminescence was measured on the Envision plate reader (Equipment No. 2104, PerkinElmer) with integration time of 250 ms per well. Curves of luminescence versus concentration (nM) were fitted with GraphPad Prism Software.

NCI-H460 = assay: Cytotoxicity test, luminescent cell viability; format: cell-based; conditions: Homo sapiens; NCI-H460 (LCLC), 72-hour incubation
Excerpt: as §1

OV90 = assay: Cytotoxicity test, luminescent cell viability; format: cell-based; conditions: Homo sapiens, OV-90; OV90 (Ovarian cancer), 72-hour incubation
Excerpt: as §1

NCI-H524 = assay: Cytotoxicity test, luminescent cell viability; format: cell-based; conditions: Homo sapiens; NCI-H524 (SCLC), 72-hour incubation
Excerpt: as §1

HT55 = assay: Cytotoxicity test, luminescent cell viability; format: cell-based; conditions: Homo sapiens; HT55 (Colon carcinoma), 72-hour incubation
Excerpt: as §1

MDA-MB-468 = assay: Cytotoxicity test, luminescent cell viability; format: cell-based; conditions: Homo sapiens; MDA-MB-468 (Breast cancer), 72-hour incubation
Excerpt: as §1

NCI-H82 = assay: Cytotoxicity test, luminescent cell viability; format: cell-based; conditions: Homo sapiens; NCI-H82 (SCLC), 72-hour incubation
Excerpt: as §1

NCI-H226 = assay: Cytotoxicity test, luminescent cell viability; format: cell-based; conditions: Homo sapiens; NCI-H226 (Lung cancer), 72-hour incubation
Excerpt: as §1

SHP77 = assay: Cytotoxicity test, luminescent cell viability; format: cell-based; conditions: Homo sapiens; SHP77 (SCLC), 72-hour incubation
Excerpt: as §1

LS1034 = assay: Cytotoxicity test, luminescent cell viability; format: cell-based; conditions: Homo sapiens, LS-1034; LS1034 (Colon carcinoma), 72-hour incubation
Excerpt: as §1

OVCAR3 = assay: Cytotoxicity test, luminescent cell viability; format: cell-based; conditions: Homo sapiens, OVCAR-3; OVCAR3 (Ovarian cancer), 72-hour incubation
Excerpt: as §1

| SMILES | Papp A→B at 2 h, 2 μM [1] | IC50 (NCI-N87) | IC50 (NCI-H460) | IC50 (OV90) | IC50 (NCI-H524) | IC50 (HT55) | IC50 (MDA-MB-468) | IC50 (NCI-H82) | IC50 (NCI-H226) | IC50 (SHP77) | IC50 (LS1034) | IC50 (OVCAR3) |
| --- | --- | --- | --- | --- | --- | --- | --- | --- | --- | --- | --- | --- |
| CC[C@@]1(O)C(=O)OCc2c1cc1n(c2=O)Cc2c-1nc1cc(F)c(C)c3c1c2[C@H](NC(=O)C1COC1)CC3 [Compound 4] | 0.026 ×10⁻⁶ cm/s | 29.6 nM | 31.2 nM | 76 nM | 90.6 nM | 349 nM | 6.7 nM | 1500 nM | 44.6 nM | 655 nM | 249 nM | 395 nM |
| CC[C@@]1(O)C(=O)OCc2c1cc1n(c2=O)Cc2c-1nc1cc(F)c(C)c3c1c2[C@H](NC(=O)CCOC)CC3 [Compound 5] | 0.105 ×10⁻⁶ cm/s | 16.8 nM | 19.4 nM | 9.6 nM | 21.5 nM | 192 nM | 5.1 nM | 288 nM | 9.8 nM | 202 nM | 158 nM | 270 nM |
| CC[C@@]1(O)C(=O)OCc2c1cc1n(c2=O)Cc2c-1nc1cc(F)c(C)c3c1c2[C@H](NC(=O)C1CC1)CC3 [Compound 3] | 0.279 ×10⁻⁶ cm/s | 5.3 nM | 8.9 nM | 5.1 nM | 11.3 nM | 68.1 nM | 2.1 nM | 50.2 nM | 3.6 nM | 60 nM | 41.7 nM | 91.2 nM |
| CC[C@@]1(O)C(=O)OCc2c1cc1n(c2=O)Cc2c-1nc1cc(F)c(C)c3c1c2[C@H](NC(=O)C(C)C)CC3 [Compound 10] | 0.358 ×10⁻⁶ cm/s | 5.2 nM | 7.4 nM | 9.8 nM | 17.9 nM | 69.6 nM | 2.9 nM | 61.7 nM | 5.1 nM | 101 nM | 114 nM | 68.1 nM |

Source: patent US20250376479A1, “EXATECAN DERIVATIVES AND USES THEREOF” (priority 2024, published 2025)
